Measurements reported in ChEMBL document CHEMBL1159007, “Isolation and identification of xochitloldione and isoxochitlolone from Cnidosculus urens” (J Nat Prod, 1992).
Active and inactive are the calls of the source. No cut-off for these calls is given here.

How the values were obtained:
Staphylococcus aureus = experiment: Antimicrobial activity against Staphylococcus aureus; type: functional, organism-based
Escherichia coli = experiment: Antimicrobial activity against Escherichia coli; type: functional, organism-based

`Cc1cc2c(cc1O)C=C1C=CCC(C)(C)[C@@H]1CC2=O` was tested, and the Activity (Staphylococcus aureus) was “Active” and the Activity (Escherichia coli) was “Active”.
